For the test, the target named is T1, CelD GH5 catalytic domain (construct 91–452) (Piromyces finnis, UniProt A0A1Y1V643).
T1 construct: gene BCR36DRAFT_398243; third GH5 catalytic domain of 136 kDa three-GH5, double-dockerin CelD; E. coli BL21-Gold(DE3), pMCSG68; N-terminal His/Strep tag cut by TEV for crystallisation; two molecules per asymmetric unit
The test can be described thus: X-ray crystallography, co-crystal, […] Å. Conditions: inactive acid/base mutant; 10 mM cellotriose added; bound at -3, -2, -1 subsites of active site; 0.1 M sodium acetate, 24% PEG 6000, 16 °C. The class given is binding.

T1 sequence (A0A1Y1V643 entry or part of it E900A): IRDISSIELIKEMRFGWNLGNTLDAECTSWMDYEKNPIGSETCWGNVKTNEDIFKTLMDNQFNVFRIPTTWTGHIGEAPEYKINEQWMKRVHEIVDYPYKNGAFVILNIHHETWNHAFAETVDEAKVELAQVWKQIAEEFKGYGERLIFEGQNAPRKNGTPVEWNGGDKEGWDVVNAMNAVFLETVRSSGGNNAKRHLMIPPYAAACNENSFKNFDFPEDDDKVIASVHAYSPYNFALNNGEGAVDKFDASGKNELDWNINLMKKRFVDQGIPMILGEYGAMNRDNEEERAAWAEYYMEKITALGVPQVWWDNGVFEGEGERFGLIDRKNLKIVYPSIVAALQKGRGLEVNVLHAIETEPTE

On to `OC[C@H]1O[C@@H](O[C@H]2[C@H](O)[C@@H](O)[C@H](O[C@H]3[C@H](O)[C@@H](O)C(O)O[C@@H]3CO)O[C@@H]2CO)[C@H](O)[C@@H](O)[C@@H]1O` (stereo partly shown) [cellotriose], for which the “X-ray crystallography, co-crystal, 1.8 Å” value was “The complex between the E154A mutant protein and cellotriose was formed by adding the ligand”.

These data come from paper PMC10485095, “Structure and enzymatic characterization of CelD endoglucanase from the anaerobic fungus Piromyces finnis” (Applied Microbiology and Biotechnology, 2023).
